Results taken from patent US20210212967A1, “Treatment of Irritable Bowel Syndrome” (Gruenenthal GmbH, priority 2010, published 2021).

How the values were obtained:
[1] = test system: isolated guinea pig ileum; experiment: Twitch contractions of the electrically stimulated isolated guinea pig ileum
Protocol: It was investigated whether tapentadol is able to modulate gastrointestinal motility.
Male guinea pigs (PBW, Charles River, KiBlegg, FRG) weighing 250-350 g were used for the study. The animals were kept under standard housing conditions: light/dark rhythm (06.00-18.00 h light, 18.00-6.00 h dark); room temperature 22±2° C., rel. air humidity 55±5%; 15 air changes per hour, air movement <0,2 m/sec. The animals were given water and an exclusive diet of “Herilan RM 204” (Eggersmann Company, Rinteln/FRG) ad libitum. Before experimental preparation they were kept in groups of up to 5 animals in type IV Makrolon cages (Ebeco Company, Castrop-Rauxel, FRG). There were at least 4 days between delivery and test day.
Tapentadol hydrochloride was dissolved in aqua bidest. Final concentrations in the organ bath ranged from 3·10^−8 to 10^−5 M (cumulative drug application). As opioid antagonist naloxone (10^−6 M) was used.
A four-compartment organ bath (Dept. Biotechnology, Grunenthal GmbH) was employed with 20 ml acrylic glass compartments, organ supports and force transducers (F10 Force transducers, Type 375, HSE, FRG) for the determination of isometric contractions. The organ baths were filled and emptied by means of a semi-automatic dosing arrangement. The nutrient medium in the organ baths was kept at room temperature. In a nutrient storage chamber and in the organ baths the nutrient solution was gassed with carbogen through a frit from 30 min before commencement of the experiment.
The nutrient solution had the following composition:
Parameter: contraction force [g]
Guinea pigs were killed in CO2-atmosphere and the ileum was dissected free from adhering tissue, removed and suspended in the organ bath. After an incubation period of at least 30 min, transmural stimulation pulses were delivered with a duration of 1 ms and an amplitude of 180 mA at 0.03 Hz (Stimulator A310, WPI, FRG) and isometric contractions (Twitch reactions) were recorded. The preparations were pre-tensioned with 1 g. […]
Data were calculated as the mean stimulated contraction force during the period of 4 to 6 min. p. appl. and expressed as percentage of the pre-value. […] All results were expressed as means±s.e.m. of 4 single experiments. For determination of 1050 values, regression lines (y=f log x) were constructed and 1050 values with s.e.m. were calculated using a computer-assisted regression analysis program (Grünenthal GmbH). The reversal of the test compound's activity by the antagonist was expressed as the percentage of the effects of the combination of agonist and antagonist referred to the effects of the test compound alone in the highest concentration according to the following formula: […]

[2] = test system: visceral hyperalgesia induced by rectal administration of mustard oil in mice; experiment: Mustard oil colitis (visceral pain), prophylactic treatment; format: in vivo; conditions: i.v. 5 min before mustard oil
Description: (§1) The effects of tapentadol hydrochloride on visceral hyperalgesia were studied, which was induced by rectal administration of mustard oil in mice (according to Laird J M, Martinez-Caro L, Garcia-Nicas E, Cervero F. (2001) A new model of visceral pain and referred hyperalgesia in the mouse. Pain 92: 335-42). The typical visceral pain behaviour was quantified in three parameters: During the first minutes after mustard oil administration spontaneous visceral pain behaviour occurs. Following this period of spontaneous pain, referred allodynia and hyperalgesia can be quantified by means of von Frey filaments of different strength stimulating the abdomen of the mice.
(§2) Male NMRI mice (28-38 g body weight) from a commercial breeder (Iffa Credo, France) were used. The animals were housed under standardized conditions: light/dark cycle (06.00-18.00 h light, 18.00-06.00 h dark), room temperature 20-24° C., relative air humidity 35-70%, 15 air changes per hour, air movement <0,2 m/sec, tap water and standard diet ad libitum, macrolon type 4 cages with maximally 30 animals per cage. There were at least 5 days between delivery and start of the experiment.
(§3) Tapentadol hydrochloride was dissolved in vehicle solution and injected intra-venously. • Doses: 2.15/ 4.64/ 10.0 mg/kg i.v. (prophylactic) 10.0/ 21.5/ 31.6 mg/kg i.v. (curative) • Administration volume: 10 ml/kg
(§4) Vehicle solution: 0.9% NaCl solution (Fresenius, Bad Homburg, FRG)
(§5) Mustard oil was dissolved in vehicle solution and administered intra-rectally Dose: 50 μl of a 3.5 Vol-% solution per animal • Vehicle solution: PEG 200
Animals were habituated to the test conditions for 20-30 min and stimulated with von Frey filaments onto the abdominal wall. 10 stimulations with von Frey filaments of 1, 4, 8, 16, and 32 mN were applied in ascending order (i.e. 10×1 mN, 10×4 mN, etc.). Animals with more than 25 positive reactions during this phase were excluded. […]
Tapentadol hydrochloride or vehicle was given intravenously (i.v.) 5 min before mustard oil. […] The following parameters were counted: […]

[3] = test system: visceral hyperalgesia induced by rectal administration of mustard oil in mice; experiment: Mustard oil colitis (visceral pain), curative treatment; format: in vivo
Description: as §1, §2, §3, §4, §5
Animals were habituated to the test conditions for 20-30 min and stimulated with von Frey filaments onto the abdominal wall. 10 stimulations with von Frey filaments of 1, 4, 8, 16, and 32 mN were applied in ascending order (i.e. 10×1 mN, 10×4 mN, etc.). Animals with more than 25 positive reactions during this phase were excluded. Vaseline was applied in the perianal area to avoid the stimulation of somatic areas with the irritant chemical. Colitis was induced by rectal administration of […] mustard oil (3.5%). Control animals were treated with vehicle (50 μl PEG200). Group sizes were n =7 for all experiments.
Tapentadol hydrochloride or vehicle was given intravenously (i.v.) 4 hours after mustard oil. Seven animals were tested per group. The following parameters were counted 10 minutes before and at different time points after administration of the test compound or vehicle: • 1. Referred allodynia (number of reactions): counting of withdrawal reactions against 10 stimulations with a 1 mN von Frey filament. • 2. Referred hyperalgesia (referred pain score): counting and scoring of withdrawal reactions against 10 stimulations with a 16 mN von Frey filament (Score 1-3, 1=lifting of abdomen, licking, movement, 2=extrusion or flinching of hind paws, slight jumping, strong licking, 3=strong jumping, vocalisation). Percent of maximal possible effect (% MPE) was calculated for each animal based on the baseline taken 10 min before administration of compound or vehicle.
Significance was calculated by paired T-test (* 0.05≥p>0.01; ** 0.01≥p>0.001; *** p≤0.001. ED50 values and 95% confidence intervals were calculated by linear regression.

[4] = target: recombinantly produced p-opioid receptor (Homo sapiens, UniProt P35372); conditions: relative to morphine; cited from earlier work
Sequence of recombinantly produced p-opioid receptor (P35372 whole entry): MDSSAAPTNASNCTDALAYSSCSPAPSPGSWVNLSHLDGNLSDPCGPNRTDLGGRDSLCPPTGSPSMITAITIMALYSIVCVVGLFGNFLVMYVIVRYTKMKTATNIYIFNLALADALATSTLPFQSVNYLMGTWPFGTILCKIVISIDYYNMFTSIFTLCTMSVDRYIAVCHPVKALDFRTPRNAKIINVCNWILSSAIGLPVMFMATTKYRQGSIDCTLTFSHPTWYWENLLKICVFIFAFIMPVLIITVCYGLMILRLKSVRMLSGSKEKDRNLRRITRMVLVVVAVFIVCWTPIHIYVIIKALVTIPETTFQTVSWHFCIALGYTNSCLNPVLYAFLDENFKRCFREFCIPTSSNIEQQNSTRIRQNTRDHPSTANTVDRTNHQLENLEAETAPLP

[5] = clinical studies; cited from earlier work

Row | Compound | IC50 ([1]; Cavia porcellus, electrically induced twitch contractions, cumulative application 3·10^−8 to 10^−5 M, mean ± s.e.m. of 4 experiments) | % reversal by naloxone ([1]; naloxone 10^−6 M added after the last application, without wash out) | threshold concentration ([1]; reduction of electrically induced contractions) | Twitch contraction remaining at highest concentration (% of pre-value) ([1]; twitch reaction remaining at highest concentration 10^−5 M, mean ± s.e.m., hydrochloride) | ED50 referred allodynia (95% confidence intervals) ([2]; 1 mN von Frey filament, 20-40 min after mustard oil) | ED50 referred hyperalgesia (95% confidence intervals) ([2]; 16 mN von Frey filament, 20-40 min after mustard oil) | ED50 spontaneous visceral pain behaviour (95% confidence intervals) ([2]; scored 2-12 min after mustard oil) | efficacy reached at highest dose ([3]; 31.6 mg/kg i.v.) | ED50 referred allodynia (95% confidence intervals) ([3]; i.v. 4 hours after mustard oil, 1 mN von Frey filament) | ED50 referred hyperalgesia (95% confidence intervals) ([3]; i.v. 4 hours after mustard oil, 16 mN von Frey filament) | duration of action in the referred hyperalgesia ([3]; i.v., time course) | time of maximal efficacy after administration ([3]; i.v., time course) | affinity, times less than that of morphine [4] | pain-alleviating action relative to morphine [5]
1 | CC[C@@H](c1cccc(O)c1)[C@@H](C)CN(C)C.Cl [tapentadol hydrochloride, (1 R,2R)-3-(3-dimethylamino-1-ethyl-2-methyl-propyl)-phenol hydrochloride] | 1490 ± 200 nM | 33.3% | about 10^−7 M | 5.77±1.26 % pre-value | 3.75 (2.76-4.75) mg/kg i.v. | 3.93 (2.32-5.69) mg/kg i.v. | 1.47 (0.51-2.28) mg/kg i.v. | Almost full efficacy | 21.7 (19.3-25.0) mg/kg i.v. | 16.3 (12.5-19.9) mg/kg i.v. | more than 2 h | 20 min |  | 
2 | CC[C@@H](c1cccc(O)c1)[C@@H](C)CN(C)C [tapentadol, (1R,2R)-3-(3-dimethylamino-1-ethyl-2-methyl-propyl)-phenol] |  |  |  |  |  |  |  |  |  |  |  |  | 18 times | two to three times less than that of morphine
